Results reported in US11866405B2, “Substituted indazoles as IRAK4 inhibitors” (AstraZeneca AB, priority 2020, dated 2024).

Assays:
[1] = biological target: human recombinant IRAK4 protein (Homo sapiens (Human), UniProt Q9NWZ3); assay: IRAK4 enzyme assay (mass spectrometry readout); assay type: biochemical; settings: 3 mM ATP, 0.2 nM enzyme; geometric mean of at least n=2, * single experiment
Method: Potency of IRAK4 Inhibitor Compounds in IRAK4 Enzyme Assay
The inhibitory activity of compounds against IRAK4 were determined in an enzymatic assay using mass spectrometry readout. Ten point half-log compound concentration response curves, with a top concentration of 1 μM or 10 μM, were generated from 10 mM stocks of compound solubilized in DMSO using an Echo 655 (Labcyte Inc) and added to 384 well assay plates (Greiner #781280). To the assay plates, 10 μL of human recombinant IRAK4 protein (Life Technologies #PV4002) diluted to a final concentration of 0.2 nM in assay buffer (50 mM Tris-HCl pH 7.4, 10 mM MgCl, 5 mM glutathione, 0.01% BSA, 3 mM ATP) was added. The enzyme was incubated with the compounds at room temperature for 15 minutes before a peptide substrate ([…], Innovagen custom synthesis, 10 mM in DMSO) was added to each well to a final concentration of 10 μM using an Echo 655 (Labcyte Inc). After two hours at room temperature, the reaction was stopped with 90 μL of 0.4% formic acid (Merck #33015). The unphosphorylated and phosphorylated peptide were measured by LC-MS/MS on a Waters TQ-S mass spectrometer. Peaks were integrated using the TargetLynx software and the ratios between phosphorylated and unphosphorylated peptides were calculated. Curves were fitted and compound potencies determined in Genedata Screener 15 (Genedata AG). Data presented are the geometric mean of at least n=2, or as denoted by an * are obtained from a single experiment.

[2] = biological target: IRAK4 auto-phosphorylation (Homo sapiens (Human), UniProt Q9NWZ3); assay: IRAK4 phosphorylation cell assay in IL-1β-stimulated Karpas-299 cells; assay type: cell-based; settings: IL-1β 22.7 ng/mL, pIRAK4 (Thr345/Ser346), geometric mean of at least 2 experiments
Method: IRAK4 Phosphorylation Cell Assay
The activation of IRAK4 by TLR or IL-1R ligands leads to IRAK4 auto-phosphorylation, which can be prevented by IRAK4 kinase inhibitors. The effect of IRAK4 inhibitor compounds on IRAK4 auto-phosphorylation was assessed in IL-1β-stimulated Karpas-299 cells as a measurement of cellular potency. Karpas-299 cells were cultured in RPMI 1640 (Gibco 61870-010) containing 10% FBS (Gibco #10270). Cells were plated at 2×10^4 cells per well in poly-D-lysine coated 384 well plates (Corning #356663) to which compounds had been added at various concentrations (10 point half log dose response with a final top concentration of 30 μM) using an Echo 655 (Labcyte Inc). Cells were centrifuged (250 g, 4 mins), incubated at 37° C. for 1 h, then stimulated with 22.7 ng/mL recombinant IL-1β (R&D Systems, #201-LB-025) at 37° C. for 10 mins, followed by fixation in 4% paraformaldehyde for 10 mins and permeabilization in ice-cold 70% MeOH for 30 mins. Cells were washed twice with phosphate-buffered saline (PBS) on a BlueWasher (BlueCatBio) then blocked with PBS containing 10% FBS for 20 mins. Blocking solution was removed with a BlueWasher and cells were stained with anti-pIRAK4 (Thr345/Ser346) (CST, #11927, 1:400) in blocking buffer with 0.05% Tween-20 for 1 h, then washed twice with PBS containing 0.05% Tween-20 on a BlueWasher, followed by staining with a Alexa 647-conjugated secondary anti-rabbit IgG antibody (CST, #4414, 1:2,000) and Hoechst 33342 (Sigma, 1:2,000) in blocking buffer with 0.05% Tween-20 for 30 mins. Finally, the cells were washed twice with PBS containing 0.05% Tween-20 and imaged on an ImageXpress Micro (Molecular Devices) with a 10× air objective using the appropriate filters. Images were analysed in Columbus (PerkinElmer) and the fluorescence intensity per cell from the secondary antibody was quantified. The quantified data were analysed in Genedata Screener 15 (Genedata AG). […] IC50 values are the geometric mean of at least 2 experiments.

Sequence of IRAK4 auto-phosphorylation (Q9NWZ3 whole entry): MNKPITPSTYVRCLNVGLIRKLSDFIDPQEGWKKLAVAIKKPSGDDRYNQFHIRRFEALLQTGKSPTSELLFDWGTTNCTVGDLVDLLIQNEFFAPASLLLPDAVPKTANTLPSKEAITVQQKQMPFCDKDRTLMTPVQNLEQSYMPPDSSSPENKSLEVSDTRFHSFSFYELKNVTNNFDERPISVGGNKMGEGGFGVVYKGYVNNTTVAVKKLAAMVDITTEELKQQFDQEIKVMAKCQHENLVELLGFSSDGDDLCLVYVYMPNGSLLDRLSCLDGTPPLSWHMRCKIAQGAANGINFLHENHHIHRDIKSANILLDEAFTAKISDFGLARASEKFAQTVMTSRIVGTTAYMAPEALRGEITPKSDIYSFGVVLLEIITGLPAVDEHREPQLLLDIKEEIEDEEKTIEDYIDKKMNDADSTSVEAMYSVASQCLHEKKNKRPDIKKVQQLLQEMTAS
Sequence of human recombinant IRAK4 protein (Q9NWZ3 whole entry): as above

IC50 [1] [nM] | IC50 [2] [nM] | Structure (SMILES)
7.2 | 115 | COc1cc2nn([C@H]3CCC(N(C)C(C)=O)C[C@@H]3C)cc2cc1C(=O)Nc1cnc2cccnn12 (single isomer, unassigned) [Example 35, N-(imidazo[1,2-b]pyridazin-3-yl)-6-methoxy-2-((1S,2S,4R*)-2-methyl-4-(N-methylacetamido)cyclohexyl)-2H-indazole-5-carboxamide]
3.8 | 56 | COc1cc2nn([C@@H]3CCC(N(C)C(C)=O)C[C@H]3C)cc2cc1C(=O)Nc1cnc2cccnn12 (single isomer, unassigned) [Example 36, N-(imidazo[1,2-b]pyridazin-3-yl)-6-methoxy-2-(1R,2R,4R*)-2-methyl-4-(N-methylacetamido)cyclohexyl)-2H-indazole-5-carboxamide]
10 | 160 | COc1cc2nn([C@H]3CC[C@H](O)C[C@@H]3C)cc2cc1C(=O)Nc1cnn2cccnc12 (single isomer, unassigned) [Example 39]
0.8 | 42 | C[C@H]1C[C@@H](O)CC[C@@H]1n1cc2cc(C(=O)Nc3cnn4cccnc34)c(OC3CC3)cc2n1 (single isomer, unassigned) [Example 44]
3.5 | 49 | COc1cc2nn([C@H]3CCC[C@](C)(O)C3)cc2cc1C(=O)Nc1cnn2cccnc12 (single isomer, unassigned) [Example 53]
0.8 | 21 | COc1cc2nn([C@@H]3CCC(N(C)C(C)=O)C[C@H]3C)cc2cc1C(=O)Nc1cnn2cccnc12 (single isomer, unassigned) [Example 60]
24.2 | 238 | COc1cc2nn([C@@H]3CCC(N(C)C(C)=O)C[C@H]3C)cc2cc1C(=O)Nc1cnn2cccnc12 (single isomer, unassigned) [Example 61]
16 | 185 | COc1cc2nn([C@H]3CCC(N(C)C(C)=O)C[C@@H]3C)cc2cc1C(=O)Nc1cnn2cccnc12 (single isomer, unassigned) [Example 62, 6-methoxy-2-((1S,2S,4R*)-2-methyl-4-(N-methylacetamido)cyclohexyl)-N-(pyrazolo[1,5-a]pyrimidin-3-yl)-2H-indazole-5-carboxamide]
46.8 | 338 | COc1cc2nn([C@H]3CCC(N(C)C(C)=O)C[C@@H]3C)cc2cc1C(=O)Nc1cnn2cccnc12 (single isomer, unassigned) [Example 63, 6-methoxy-2-((1S,2S,4R*)-2-methyl-4-(N-methylacetamido)cyclohexyl)-N-(pyrazolo[1,5-a]pyrimidin-3-yl)-2H-indazole-5-carboxamide]

Continued, compound first:

Structure (SMILES) | IC50 [1] [nM] | IC50 [2] [nM]
CC1(O)CC2(CCC(n3cc4cc(C(=O)Nc5cnn6cccnc56)c(OC5CC5)cc4n3)CC2)C1 (single isomer, unassigned) [Example 15, 6-Cyclopropoxy-2-(2-hydroxy-2-methylspiro[3.5]nonan-7-yl)-N-(pyrazolo[1,5-a]pyrimidin-3-yl)-2H-indazole-5-carboxamide] | 0.5 | 91
CC1(O)CC2(CCC(n3cc4cc(C(=O)Nc5cnn6cccnc56)c(OC5CC5)cc4n3)CC2)C1 (single isomer, unassigned) [Example 16, 6-Cyclopropoxy-2-(2-hydroxy-2-methylspiro[3.5]nonan-7-yl)-N-(pyrazolo[1,5-a]pyrimidin-3-yl)-2H-indazole-5-carboxamide] | 0.6 | 77
CC(=O)N1CC2(CC[C@@H](n3cc4cc(C(=O)Nc5cnn6cccnc56)c(OC5CC5)cc4n3)[C@H](C)C2)C1 (single isomer, unassigned) [Example 28] | 3 | 161
O=C(Nc1cnn2cccnc12)c1cc2cn(C3CCC4(CC3)CC(O)C4)nc2cc1OC1CC1 (single isomer, unassigned) [Example 46, 6-Cyclopropoxy-2-(2-hydroxyspiro[3.5]nonan-7-yl)-N-(pyrazolo[1,5-a]pyrimidin-3-yl)-2H-indazole-5-carboxamide] | 0.6 | 56
O=C(Nc1cnn2cccnc12)c1cc2cn(C3CCC4(CC3)CC(O)C4)nc2cc1OC1CC1 (single isomer, unassigned) [Example 47, 6-Cyclopropoxy-2-(2-hydroxyspiro[3.5]nonan-7-yl)-N-(pyrazolo[1,5-a]pyrimidin-3-yl)-2H-indazole-5-carboxamide] | 0.5 | 64
COc1cc2nn(C3CCC(C)(O)CC3)cc2cc1C(=O)Nc1cnc2cccnn12 (single isomer, unassigned) [Example 48, 2-(4-Hydroxy-4-methylcyclohexyl)-N-(imidazo[1,2-b]pyridazin-3-yl)-6-methoxy-2H-indazole-5-carboxamide] | 0.7 | 17
COc1cc2nn(C3CCC(C)(O)CC3)cc2cc1C(=O)Nc1cnc2cccnn12 (single isomer, unassigned) [Example 49, 2-(4-Hydroxy-4-methylcyclohexyl)-N-(imidazo[1,2-b]pyridazin-3-yl)-6-methoxy-2H-indazole-5-carboxamide] | 6.1 | 46
COc1cc2nn([C@H]3CCC[C@@](C)(O)C3)cc2cc1C(=O)Nc1cnn2cccnc12 (single isomer, unassigned) [Example 50] | 3.4 | 84
COc1cc2nn([C@H]3CCC[C@@](C)(O)C3)cc2cc1C(=O)Nc1cnn2cccnc12 (single isomer, unassigned) [Example 51] | 2.8 | 46
COc1cc2nn([C@H]3CCC[C@](C)(O)C3)cc2cc1C(=O)Nc1cnn2cccnc12 (single isomer, unassigned) [Example 52] | 5.5 | 96
COc1cc2nn(C3CCC4(CC3)COC(=O)N4C)cc2cc1C(=O)Nc1cnc2cccnn12 (single isomer, unassigned) [Example 74, N-(Imidazo[1,2-b]pyridazin-3-yl)-6-methoxy-2-(1-methyl-2-oxo-3-oxa-1-azaspiro[4.5]decan-8-yl)-2H-indazole-5-carboxamide] | 2.7 | 79
COc1cc2nn(C3CCC4(CC3)COC(=O)N4C)cc2cc1C(=O)Nc1cnc2cccnn12 (single isomer, unassigned) [Example 75, N-(Imidazo[1,2-b]pyridazin-3-yl)-6-methoxy-2-(1-methyl-2-oxo-3-oxa-1-azaspiro[4.5]decan-8-yl)-2H-indazole-5-carboxamide] | 0.3 | 12
COc1cc2nn([C@@H]3CC[C@H](O)[C@H](C)C3)cc2cc1C(=O)Nc1cnc2cccnn12 (single isomer, unassigned) [Example 77] | 0.7 | 14
COc1cc2nn([C@H]3CC[C@H](O)[C@H](C)C3)cc2cc1C(=O)Nc1cnc2cccnn12 (single isomer, unassigned) [Example 78] | 2.5 | 52
COc1cc2nn([C@H]3CC[C@H](O)[C@H](C)C3)cc2cc1C(=O)Nc1cnc2cccnn12 (single isomer, unassigned) [Example 79] | 1 | 21
COc1cc2nn([C@H]3CC[C@H](O)[C@@H](C)C3)cc2cc1C(=O)Nc1cnc2cccnn12 (single isomer, unassigned) [Example 81] | 5.1 | 82
COc1cc2nn([C@@H]3CC[C@H](O)[C@@H](C)C3)cc2cc1C(=O)Nc1cnc2cccnn12 (single isomer, unassigned) [Example 82] | 2.4 | 27
